Laboratory results published in patent US10227331B2 (priority 2015, dated 2019).

Legend:
[1] = system: P. aeruginosa expressing IMP-1, efflux+ (MB9798); format: cell-based, Pseudomonas aeruginosa; details: for P. aeruginosa expressing IMP-1, efflux+ (MB9798) MITC95: imipenem at 2 μg/mL, in the presence of a class A, C, D serine β-lactamase inhibitor closely related to relebactam; for Efflux ratio: ratio MITC95 PA_9798/MITC95 PA_9799
Excerpt: (§1) The strain background is Pseudomonas aeruginosa PAO1.

[2] = system: P. aeruginosa expressing IMP-1, efflux− (MB9799); test: Efflux: concentration of MBL inhibitor which restores susceptibility to imipenem; format: cell-based, Pseudomonas aeruginosa; details: imipenem at 2 μg/mL, in the presence of a class A, C, D serine β-lactamase inhibitor closely related to relebactam
Excerpt: as §1

NDM-1 = NDM-1 (Klebsiella pneumoniae, UniProt C7C422); test: biochemical; format: biochemical; details: CCF2-FA substrate, 2 hours at 25° C; read-out: NDM-1 IC50
NDM-1, sequence (C7C422 whole entry, looked up, species assumed): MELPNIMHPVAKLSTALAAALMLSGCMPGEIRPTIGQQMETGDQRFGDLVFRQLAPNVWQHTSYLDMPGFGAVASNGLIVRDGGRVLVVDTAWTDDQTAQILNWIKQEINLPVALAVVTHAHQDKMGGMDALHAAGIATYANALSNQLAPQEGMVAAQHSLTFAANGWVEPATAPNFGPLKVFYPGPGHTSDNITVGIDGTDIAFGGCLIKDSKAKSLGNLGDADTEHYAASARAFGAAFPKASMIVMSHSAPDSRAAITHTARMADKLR
How it was run: (§2)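 Enzyme activity was measured by fluorescence using CCF2-FA, a cephalosporin-linked 7-hydroxycoumarin/fluorescein substrate, with inhibitor, metallo-β-lactamase and substrate incubated together for 2 hours at 25° C. IC50 came from a 4-parameter fit of inhibition versus log inhibitor concentration.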

IMP-1 = IMP-1 (Serratia marcescens, UniProt P52699); test: biochemical; format: biochemical; details: CCF2-FA substrate, 2 hours at 25° C; read-out: IMP-1 IC50
IMP-1, sequence (P52699 whole entry, looked up, species assumed): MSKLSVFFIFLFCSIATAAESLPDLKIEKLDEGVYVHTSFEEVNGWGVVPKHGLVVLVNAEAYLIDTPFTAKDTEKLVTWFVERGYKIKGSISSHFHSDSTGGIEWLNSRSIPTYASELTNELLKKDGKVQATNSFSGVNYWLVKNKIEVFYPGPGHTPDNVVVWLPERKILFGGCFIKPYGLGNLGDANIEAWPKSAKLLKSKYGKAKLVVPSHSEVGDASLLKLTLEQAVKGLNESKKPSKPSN
How it was run: as §2

[3] = system: Escherichia coli expressing NDM-1 (CLB30005, CLB30016); format: cell-based; details: with imipenem 1 μg/ml, 95% inhibition of bacterial growth; for Escherichia coli MITC95: NDM-1 (CLB30016)
How it was run: (§3)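 Restoration of imipenem susceptibility (1 μg/ml imipenem) was judged by absorbance after 22–24 h at 35° C. Test compound was added to bacteria suspended 1:100 in 1.1× CAMHB from overnight blood-agar cultures.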

[4] = system: Klebsiella pneumoniae expressing VIM-1 (IHMA599644); format: cell-based; details: with imipenem 1 μg/ml, 95% inhibition of bacterial growth; for Klebsiella pneumoniae MITC95: VIM-1 (IHMA599644)
How it was run: as §3

[5] = system: Serratia marcescens expressing IMP-1 (CL5741); format: cell-based; details: with imipenem 1 μg/ml, 95% inhibition of bacterial growth; for Serratia marcescens MITC95: IMP-1 (CL5741)
How it was run: as §3

VIM-1 = VIM-1 (Pseudomonas aeruginosa (strain ATCC 15692 / DSM 22644 / CIP 104116 / JCM 14847 / LMG 12228 / 1C / PRS 101 / PAO1), UniProt A0A0F7KYQ8); test: biochemical; details: CCF2-FA substrate, 2 hours at 25° C
How it was run: as §2

Structure (SMILES) | P. aeruginosa expressing IMP-1, efflux+ (MB9798) MITC95 [1] [µM] | Efflux ratio [1] | P. aeruginosa expressing IMP-1, efflux− (MB9799) MITC95 [2] [µM] | IC50 (NDM-1) [nM] | IC50 (IMP-1) [nM] | Escherichia coli expressing NDM-1 (CLB30016) MITC95 [3] [µM] | Klebsiella pneumoniae expressing VIM-1 (IHMA599644) MITC95 [4] [µM] | Serratia marcescens expressing IMP-1 (CL5741) MITC95 [5] [µM] | IC50 (VIM-1) [nM] | Escherichia coli MITC95 [3] [µM] | Klebsiella pneumoniae MITC95 [4] [µM] | Serratia marcescens MITC95 [5] [µM]
Nc1ccc2ncc(-c3ccc(S(=O)(=O)C4CNC4)c(S(N)(=O)=O)c3-c3nn[nH]n3)n2n1 [Example 17, 3-(6-Aminoimidazo[1,2-b]pyridazin-3-yl)-6-(azetidin-3-ylsulfonyl)-2-(2H-tetrazol-5-yl)benzenesulfonamide] | 3.125 | 2.00 | 1.563 | 0.207 | 0.959 | 3.125 | 6.25 | 3.125 | 0.707 | – | – | –
NCCS(=O)(=O)c1ccc(-c2ccc(C(F)(F)F)c3sc(N)nc23)c(-c2nn[nH]n2)c1S(N)(=O)=O [Example 72, 3-(2-amino-7-(trifluoromethyl)benzo[d]thiazol-4-yl)-6-(2-aminoethylsulfonyl)-2-(2H-tetrazol-5-yl)benzenesulfonamide] | 3.125 | 4.00 | 0.7813 | 0.153 | 0.322 | 0.7813 | 1.563 | 1.563 | 0.286 | – | – | –
CC(N)CS(=O)(=O)c1ccc(-c2cccc3sc(N)nc23)c(-c2nn[nH]n2)c1S(N)(=O)=O (stereo not drawn) [Example 269, 3-(2-aminobenzo[d]thiazol-4-yl)-6-(2-aminopropylsulfonyl)-2-(2H-tetrazol-5-yl)benzenesulfonamide] | 0.7813 | 1.00 | 0.7813 | 0.116 | 0.152 | – | – | – | 0.176 | 1.563 | 3.125 | 1.563
C[C@H](N)CS(=O)(=O)c1ccc(-c2cccc3sc(N)nc23)c(-c2nn[nH]n2)c1S(N)(=O)=O [Example 93, 3-(2-aminobenzo[d]thiazol-4-yl)-6-((S)-2-aminopropylsulfonyl)-2-(2H-tetrazol-5-yl)benzenesulfonamide] | 0.7813 | 1.00 | 0.7813 | 0.0732 | 0.13 | 1.172 | 3.125 | 0.7813 | 0.13 | – | – | –
NCCS(=O)(=O)c1ccc(-c2cccc3ncccc23)c(-c2nn[nH]n2)c1S(N)(=O)=O [Example 324, 6-((2-aminoethyl)sulfonyl)-3-(quinolin-5-yl)-2-(2H-tetrazol-5-yl) benzenesulfonamide] | 6.25 | 8.00 | 0.7813 | 0.222 | 0.55 | – | – | – | 0.139 | 1.563 | 3.125 | 1.563
Cn1c(N)nc2c(-c3ccc(S(=O)(=O)C4CNC4)c(S(N)(=O)=O)c3-c3nn[nH]n3)cccc21 [Example 22, 3-(2-amino-1-methyl-1H-benzo[d]imidazol-4-yl)-6-(azetidin-3-ylsulfonyl)-2-(2H-tetrazol-5-yl)benzenesulfonamide] | 1.563 | 2.00 | 0.7813 | 0.164 | 0.432 | 0.3906 | 1.563 | 0.7813 | 0.213 | – | – | –
NCCS(=O)(=O)c1ccc(-c2cccc3nc(N)[nH]c23)c(-c2nn[nH]n2)c1S(N)(=O)=O [Example 70, 3-(2-amino-3H-benzo[d]imidazol-4-yl)-6-(2-aminoethylsulfonyl)-2-(2H-tetrazol-5-yl)benzenesulfonamide] | 0.4453 | 1.00 | 0.4453 | 0.251 | 0.796 | 0.25 | 0.8906 | 0.6406 | 0.37 | – | – | –
NCCNC(=O)c1ccccc1-c1ccc(S(=O)(=O)CCN)c(S(N)(=O)=O)c1-c1nn[nH]n1 [Example 342, N-(2-Aminoethyl)-4′-((2-aminoethyl)sulfonyl)-3′-sulfamoyl-2′-(2H-tetrazol-5-yl)-[1,1′-biphenyl]-2-carboxamide] | 12.5 | 4.00 | 3.125 | 15.3 | 34.2 | – | – | – | 2.84 | 1.563 | 1.563 | 3.125
NS(=O)(=O)c1c(S(=O)(=O)C2CNC2)ccc([C@H]2CC[C@@H](N)CC2)c1-c1nnn[nH]1 [Example 213, 3-((1s,4s)-4-aminocyclohexyl)-6-(azetidin-3-ylsulfonyl)-2-(1H-tetrazol-5-yl) benzenesulfonamide] | 6.25 | 4.00 | 1.563 | 12.9 | 68.3 | 1.563 | 3.125 | 1.563 | 7.04 | – | – | –
Cc1nc(N)ccc1-c1ccc(S(=O)(=O)CCN)c(S(N)(=O)=O)c1-c1nnn[nH]1.O=C(O)C(F)(F)F [Example 170, 2-((4-(6-amino-2-methylpyridin-3-yl)-2-sulfamoyl-3-(1H-tetrazol-5-yl)phenyl)sulfonyl)ethanaminium 2,2,2-trifluoroacetate] | 6.25 | 4.00 | 1.563 | 3.48 | 2.87 | 0.3906 | 3.125 | 0.7813 | 1.01 | – | – | –
NS(=O)(=O)c1c(S(=O)(=O)C2CNC2)ccc(-c2cncc3[nH]c(=O)[nH]c23)c1-c1nnn[nH]1 [Example 301, 6-(azetidin-3-ylsulfonyl)-3-(2-oxo-2,3-dihydro-1H-imidazo[4,5-c]pyridin-7-yl)-2-(1H-tetrazol-5-yl)benzenesulfonamide] | 3.125 | 2.00 | 1.563 | 0.536 | 2.87 | – | – | – | 0.96 | 0.7813 | 6.25 | 3.125
